Measured values reported in US20220195386A1, “COMPOSITIONS AND METHODS FOR MAKING SENSORY NEURONS” (University of Georgia Research Foundation, Inc., priority 2020, published 2022).

B1: NT-3: Neurotrophin-3, binds to TRKC; used to promote differentiation of proprioceptors (protein, UniProt P20783 139-257, looked up)
Neurotrophin-3: YAEHKSHRGEYSVCDSESLWVTDKSSAIDIRGHQVTVLGEIKTGNSPVKQYFYETRCKEARPVKNGCRGIDDKHWNSQCKTSQTYVRALTSENNKLVGWRWIRIDTSCVCALSRKIGRT

tested on: hESC-derived SNs; experiment: Multi-electrode array (MEA) recording of SN firing after incubation with nociceptor agonists; type: cell-based, human; conditions: titrated, incubated for 1 min before data acquisition; 5 min recordings; normalized to untreated control (basal); FIG. 2K
Method: Experiments were performed using a Maestro Pro (Axion Biosystems) MEA system. CytoView MEA 96 plates containing 8 embedded electrodes/well were coated with PO/LM/FN 448 and seeded with NCCs (day 6 or 12) or SNs (day 30). Repeated recordings were made every 5 days at 37° C. with a sampling frequency of 12.5 kHz for 5 min. Recordings from at least 6 wells were averaged per reading. Bursts were detected using Inter-Spike Interval (ISI). Capsaicin, WIN 55,212 and Pregnenolone were titrated and incubated for 1 min before data acquisition. Hypoosomotic media was obtained by mixing Sensory neuron media with sterile water in a 45:55 ratio, treatment was done for 1 min.

Molecule	firing rate of SNs (MEA)
Cc1c(C(=O)c2cccc3ccccc23)c2cccc3c2n1[C@H](CN1CCOCC1)CO3 [WIN 55, 212-2]	increased firing rate
COc1cc(CNC(=O)CCCC/C=C/C(C)C)ccc1O [capsaicin]	increased firing rate
CC(=O)[C@H]1CC[C@H]2[C@@H]3CC=C4C[C@@H](O)CC[C@]4(C)[C@H]3CC[C@]12C [pregnenolone]	increased firing rate

tested on: SNs differentiated from NCCs replated on day 12; experiment: SN subtype enrichment with growth factors, TRKA/TRKB/TRKC quantified by flow cytometry (FACS) on day 20; type: cell-based, human; conditions: NCCs replated day 12 in SN differentiation media containing GDNF and the indicated growth factor; FACS analysis on day 20; FIG. 7B
Description: FIGS. 7A-7G illustrates strategies for SN subtype enrichment (related to FIGS. 3A-3F). FIG. 7A is a schematic of an initial approach. On day 12 of differentiation, NCCs were replated using SN differentiation media containing GDNF and the indicated growth factors and analyzed by flow cytometry. FIG. 7B is a bar graph showing quantification of SNs differentiated using enrichment media as indicated on 7A. SNs were stained with TRKA, TRKB and TRKC antibodies and quantified by flow cytometry. DAPI was used as viability dye. FIGS. 7C-7F are a series of scatter plots showing identification (7C) of subpopulation of noci- (7D), mechano- (7E), and proprioceptor (7F) enrichment by flow cytometry. Side scatter and forward scatter showing gated areas where each subtype is enriched and the percentages of each subpopulation are shown. FIG. 7G is a bar graph showing NGN2 and NGN1 waves are present during SN differentiation. RNA from SN-biased NCCs was obtained on each indicated day and NGN1 and NGN2 expression was measured by RT-qPCR. In all experiments N>4. Graphs show mean±S.D.
Cells were dissociated with Accutase for 20 min and then washed in Flow buffer: DMEM 2% FBS and 1 mM L-glutamine. Cells were centrifuged at 200 g for 4 min and resuspended in cold PBS, they were counted and diluted to a concentration of 1×10^6 cells/100 μL and incubated for 20 min (CD49d) or 1 h (TRKA, B and C) with conjugated antibody. Cells were then washed twice in Flow buffer, and incubated with DAPI (1:1,000) in 300 μL of Flow buffer for 5 mins. Cells were filtered and transferred to a 96-well plate. Samples were run using a Cytoflex S (Beckman). All subsequent analysis was done using FlowJo.
Contrary to previous reports (Alshawaf, et al., Scientific Reports 8, 603 (2018), Chambers, et al., Nat. Biotechnol. 30, 715-720 (2012), Schrenk-Siemens, et al., Nat. Neurosci. 18, 10-550 16 (2015)), the investigated protocol generates all three SN subtypes (FIG. 1H, 1I). Thus, methods to enrich distinct SN subtypes from bulk cultures were investigated. […]

Molecule	SN subtype enrichment (TRKA, TRKB, TRKC by FACS)
BDNF: Brain-derived neurotrophic factor, binds to TRKB; used to promote differentiation of mechanoreceptors	no subtype enrichment
NGF: Nerve growth factor, binds to TRKA; used to promote differentiation of nociceptors	no subtype enrichment
B1	no subtype enrichment
